Laboratory results: the supplement of paper PMC8967900

What was measured:
Assay in all cases: selective drug sensitivity score (sDSS, relative to normal bone marrow) (sDSS (score)); higher = more potent and effective on the cell line relative to normal bone marrow cells
Details in all cases: 72 h
[1] = system: LC4-1
[2] = system: COG-LL-319h
[3] = system: CCRF-CEM
[4] = system: 380
[5] = system: JURKAT
[6] = system: KOPN-8
[7] = system: ALL-SIL
[8] = system: PEER
[9] = system: COG-LL-317
[10] = system: COG-LL-402h
[11] = system: NALL-1
[12] = system: MN-60
[13] = system: HAL-01
[14] = system: MHH-CALL-4
[15] = system: REH
[16] = system: TMD5
[17] = system: MOLT-16
[18] = system: SUP-B15
[19] = system: RPMI-8402
[20] = system: KASUMI-2
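Also: ALL cell lines in 384-well plates, five doses spanning 10,000-fold, each plate scaled between vehicle and 100 µmol/L benzalkonium chloride controls, sDSS an adapted area-under-curve metric.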

SMILES | selective drug sensitivity score [1] | selective drug sensitivity score [2] | selective drug sensitivity score [3] | selective drug sensitivity score [4] | selective drug sensitivity score [5] | selective drug sensitivity score [6] | selective drug sensitivity score [7] | selective drug sensitivity score [8] | selective drug sensitivity score [9] | selective drug sensitivity score [10] | selective drug sensitivity score [11] | selective drug sensitivity score [12] | selective drug sensitivity score [13] | selective drug sensitivity score [14] | selective drug sensitivity score [15] | selective drug sensitivity score [16] | selective drug sensitivity score [17] | selective drug sensitivity score [18] | selective drug sensitivity score [19] | selective drug sensitivity score [20]
CN1CCN(C2CCC(n3cc(-c4ccc(Oc5ccccc5)cc4)c4c(N)ncnc43)CC2)CC1 (stereo not given) (top concentration 10000 nM) | -1.78 | 2.42 | 1.12 | -0.68 | 0.62 | 5.02 | 16.3 | 7.02 | 0.82 | 18.2 | 5.52 | 1.32 | 7.52 | 0.52 | 4.12 | 10.2 | 0.52 | 16.1 | 3.52 | -1.38
CC[C@H](CC#N)OC(=O)N[C@@H](C)c1cccc(NC(=O)Nc2ccc(-c3cnco3)c(OC)c2)c1 [AVN944] (top concentration 10000 nM) | 5.34 | 12.3 | 12.1 | 18.4 | 13.7 | 19.5 | 6.64 | 2.94 | 20.6 | 9.64 | 2.64 | 3.64 | 5.54 | 2.44 | 16.8 | 2.74 | 22.3 | 14.6 | 11.9 | 14.4
COc1ccc(-c2ccc3c(N4CCOC[C@@H]4C)nc(N4CCOC[C@@H]4C)nc3n2)cc1CO [AZD8055] (top concentration 10000 nM) | 6.38 | 5.28 | 13.4 | 15.8 | 4.88 | 22.6 | 6.78 | 6.08 | 4.78 | 9.88 | -3.22 | 7.98 | 5.08 | 2.88 | 12.8 | -1.62 | 12.5 | 11.9 | 7.78 | 14.6
COc1cccc2c1C(=O)c1c(O)c3c(c(O)c1C2=O)C[C@@](O)(C(=O)CO)C[C@@H]3O[C@H]1C[C@H](N)[C@@H](O)[C@H](C)O1 [Epirubicin] (top concentration 1000 nM) | 7.62 | 16.3 | 8.02 | 13.8 | 1.02 | 9.42 | 0.42 | -2.98 | 17 | 14.9 | -5.28 | -0.98 | -4.28 | 6.92 | 10.5 | 1.02 | 15.4 | 13.7 | 6.62 | 7.72
CO[C@H]1C[C@@H]2CC[C@@H](C)[C@@](O)(O2)C(=O)C(=O)N2CCCC[C@H]2C(=O)O[C@H]([C@H](C)C[C@@H]2CC[C@@H](OCCO)[C@H](OC)C2)CC(=O)[C@H](C)/C=C(\C)[C@@H](O)[C@@H](OC)C(=O)[C@H](C)C[C@H](C)/C=C/C=C/C=C/1C [Everolimus] (top concentration 100 nM) | 3.3 | 10.7 | 5.9 | 16.5 | -1 | 19.6 | -0.2 | 3.2 | 2.4 | 1 | -5.3 | 0.5 | 2.7 | -1.5 | 4 | -3.8 | 8.1 | 6.1 | -0.7 | 11.8
CON(C)C(=O)N1N=C(c2cc(F)ccc2F)S[C@@]1(CCCN)c1ccccc1 [Filanesib] (top concentration 1000 nM) | 13.2 | 23.4 | 16.2 | 18.5 | 17.7 | 9.8 | 16.6 | 19.2 | 20.8 | 17.7 | 10.3 | 7.1 | 11.5 | 7.4 | 11.9 | 10.5 | 21.2 | 21.6 | 18.9 | 19.8
CN(Cc1cnc2nc(N)nc(N)c2n1)c1ccc(C(=O)N[C@@H](CCC(=O)O)C(=O)O)cc1 [Methotrexate] (top concentration 5000 nM) | -0.02 | 20.1 | 13 | 17.8 | 13.4 | -0.12 | 15 | 14.6 | 9.18 | 2.38 | 12.7 | 14.6 | 17.1 | 9.68 | -0.22 | -0.42 | 15.7 | -0.32 | 20.2 | 0.28
CC[C@@]1(O)C(=O)OCc2c1cc1n(c2=O)Cc2cc3c(CN(C)C)c(O)ccc3nc2-1 [Topotecan] (top concentration 10000 nM) | 21.7 | 18.6 | 21.2 | 27.1 | 15.2 | 23.4 | 24.9 | 10.1 | 28 | 17.7 | 20.4 | 4.28 | 20 | 16.5 | 22.2 | 14.3 | 21.5 | 22.4 | 19.4 | 14.7
O=c1[nH]c(=O)n([C@H]2C[C@H](O)[C@@H](CO)O2)cc1C(F)(F)F [Trifluridine] (top concentration 10000 nM) | 16 | 20.2 | 14.2 | 14 | 9.66 | 17.4 | 13.7 | 7.66 | 15.6 | 8.26 | 9.76 | 3.66 | 8.76 | 2.26 | 15.3 | -1.84 | 15.1 | 15.4 | 15.5 | 10.3
Cc1sc2c(c1C)C(c1ccc(Cl)cc1)=N[C@@H](CC(=O)NCCCCNC(=O)COc1cccc3c1C(=O)N(C1CCC(=O)NC1=O)C3=O)c1nnc(C)n1-2 (stereo not given in full) [dBET1] (top concentration 10000 nM) | 5.22 | 3.62 | -3.68 | -4.58 | -11.9 | 7.82 | -7.08 | -4.48 | 2.42 | 2.22 | -11.8 | -8.08 | -14.9 | 5.42 | -1.28 | -13.8 | 1.42 | 0.52 | -6.68 | -6.88
